In US20220041559A1, “BENZO-AND PYRIDO-PYRAZOLES AS PROTEIN KINASE INHIBITORS” (ROTTAPHARM BIOTECH S.R.L., priority 2019, published 2022):
Where two headings read alike, the source gives them in different places.

Key:
VEGFR2 (KDR) kinase = biological target: T1, VEGFR2 (KDR) kinase (Homo sapiens, UniProt P35968); assay: ADP-Glo in vitro kinase assay, VEGFR2 kinase inhibition; assay type: biochemical; conditions: for IC50: ATP 50 μM, 30 minutes at room temperature; for VEGFR2 kinase inhibition, result in words: Table 19
T1 construct: purchased SignalChem
Method: (§1) The ADP-Glo™ Kinase Assay (Promega), monitoring ADP produced in the kinase reaction, was performed in two steps. In the first one, after the kinase reaction, the ADP-Glo™ Reagent is added to terminate the kinase reaction and deplete the remaining ATP. In the second step, the Kinase Detection Reagent is added to simultaneously convert ADP to ATP (ATPn or newly synthesized ATP) and introduce luciferase and luciferin, allowing the ATPn to be measured (luciferase/luciferin reaction). The amount of light generated correlates with the amount of ATPn (indirectly with the ADP produced in kinase reaction).
(§2) Kinase reaction was performed in 10 μl in a white 384-well plate, inhibitor solutions in DMSO/Kinase buffer (40 mM Tris-Cl, 20 mM MgCl2, 0.1 mg/ml BSA, 50 μM DTT, pH 7.5) and VEGFR2 (KDR) kinase in Kinase buffer (SignalChem, 0.5 ng/μl final concentration in assay) were pre-incubate 15 minutes at room temperature. At the kinase concentration selected, a signal-to negative control ratio >10 was calculated, according to supplier indication. In samples representing the Total enzymatic activity or the negative control (no enzyme), inhibitor solution was replaced by diluents (1 DMSO in kinase buffer, final concentration) or ultra-pure water, respectively.
(§3) The range of inhibitor concentrations was from 10^−11 M up to 3×10^−6 M (final concentration in assay) and each experimental point was performed in duplicate.
(§4) To start the reaction, a substrate/ATP mix (50 μM final concentration, near to ATP Km value) was added to each sample and after 30 minutes incubation at room temperature, ADP-Glo™ Reagent and Kinase Detection Reagent, incubated in sequence according to the respective incubation time and supplier indication, allowed to stop and develop the kinase reaction. The luminescence was measured with a plate-reading luminometer (Envision 2104 Multilabel reader, PerkinElmer). The percentage of inhibition was calculated towards the Total enzymatic activity and the corresponding curves were analyzed by non linear curve fitting (GraphPad software, version 7 for Windows), allowing to calculate the IC50 value±standard error of the value

FYN = biological target: T2, FYN (Homo sapiens, UniProt P06241); assay: Z'-LYTE in vitro kinase assay, FYN kinase inhibition; assay type: biochemical; conditions: near-Km ATP, 60 minutes at 25° C.
T2 construct: purchased CarnaBioscience
Method: Assays to determine the kinase inhibitory activity of compounds were performed using an automatic liquid handling device (Microlab STAR Hamilton) and Z′-LYTE™ Kinase Assay Platform (Invitrogen), a Fluorescence Resonance Energy Transfer (FRET)-based assay platform compatible with high-throughput screening (HTS) applications. The assay employs a fluorescence-based, coupled-enzyme format and utilizes the differential sensitivity of phosphorylated and non-phosphorylated peptides to proteolytic cleavage.
Test compounds were evaluated towards active FYN (CarnaBioscience). The enzyme was incubated in a 384 low-volume microplate with a synthetic peptide-substrate, ATP and different inhibitor concentrations, ranging from 10^−10 M up to 10^−5 M final concentration. Samples representing the 0% inhibition (or total enzymatic activity) were in the presence of compound diluent (1% DMSO final) in Reaction Buffer (50 mM Hepes, 10 mM MgCl2, 1 mM EGTA, 0.01% Brij-35, pH 7.5).
A near-Km ATP concentrations for the kinase and an optimal enzyme concentration that phosphorylates 20-40% of the Z′-LYTE™ Tyr 2 Peptide in a one-hour incubation, were selected. All reagents were diluted in reaction buffer and the kinase reaction was carried out in a total volume of 10 μl, for 60 minutes at 25° C. The 0% Phosphorylation (i.e. no ATP) and 100% Phosphorylation (i.e. synthetically phosphorylated peptide supplied) Assay Controls, included in each plate, allowed to calculate the percent phosphorylation achieved in the specific reaction well. The 0% Inhibition and 0% Phosphorylation (i.e. 100% Inhibition) Controls define the dynamic range in the screen. At the end of incubation, a secondary reaction (the Development Reaction) started by adding 5 μl of Development Reagent, containing a site-specific protease that recognizes and cleaves non-phosphorylated peptides, and was interrupted after 60 minutes with 5 μl/sample of Stop Reagent. Measurement of the Coumarin (Ex. 400 nm, Em. 460 nm) and Fluorescein (Ex. 400 nm, Em. 535 nm) emission signals were performed by a fluorescence plate reader (Envision, PerkinElmer).
Results are expressed as percentage of inhibition and the IC50 values were calculated by non-linear curve fitting using GraphPad™ Prism software.

EGFR = EGFR (Homo sapiens, UniProt P00533); assay: ADP-Glo in vitro kinase assay, EGFR kinase inhibition; assay type: biochemical; set-up: purchased SignalChem; conditions: for IC50: ATP 10 μM, 30 minutes at room temperature; for EGFR kinase inhibition, result in words: text summary of Table 18
Method: as §1
as §2, with “EGFR” for “VEGFR2 (KDR)”, “2.5” for “0.5”, “selected” for “selected,”, “activity (no inhibitor)” for “activity”
as §3
as §4, with “mix (ATP 10” for “mix (50”, “the estimate.” for “the value”

human FynB = human FynB (Homo sapiens, UniProt P06241); assay: Inhibition of FynB-induced Tau(Y18)-phosphorylation (cell-based assay, HEK293); conditions: HEK293 over-expressing FynB and Tau 0N4R; incubation 6 or 24 hours; ELISA
Method: HEK293 cells (Human Embryonic Kidney 293) were seeded at 6×10^5 in poly-D-lysine 12 w microplates and grown adherent in medium DMEM/10% FBS at 37° C. with 5% CO2. After 24 h, cells were transfected in order to over-express either constitutively active form of human FynB and Tau protein (isoform 0N4R), through an optimized Lipofectamine® 3000 Transfection protocol (Life Technologies™). A non-transfected sample (negative control) was included in every experiment.
Twenty-four hours from transfection, treatments of cells were performed by adding fresh medium containing diluent (DMSO 0.1% final concentration) or test compounds. The incubation was carried out for 6 or 24 hours at 37° C. with 5% CO2. All experimental conditions were performed in duplicate.
At the end of the incubation, the medium was removed and cellular lysates were obtained by adding M-PER lysis buffer containing a 1× Protease/Phosphatase inhibitors cocktail. Then, lysates were transferred into Eppendorf tubes, sonicated and stored at −80° C.
Protein content was measured by Bradford method. Lysates were analyzed by a customized ELISA assay for Tau phosphorylation (Tyrosine 18 residue-Fyn mediated) and Total amount determination. The net OD values were used to calculate the inhibitory effect of compounds.

[1] = Pharmacokinetics in CD1 mice, iv and po; assay type: in vivo; conditions: 3 mg/kg; for half-life: read-out: t½* (converted)

human FynB, sequence (P06241 271-524 limits assumed): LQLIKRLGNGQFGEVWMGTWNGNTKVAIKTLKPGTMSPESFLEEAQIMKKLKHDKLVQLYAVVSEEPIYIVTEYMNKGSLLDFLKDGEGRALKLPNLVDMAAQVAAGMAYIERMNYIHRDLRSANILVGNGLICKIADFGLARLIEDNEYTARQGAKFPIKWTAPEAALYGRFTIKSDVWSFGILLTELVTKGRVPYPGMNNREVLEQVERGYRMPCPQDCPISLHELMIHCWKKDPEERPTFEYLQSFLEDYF
T1 sequence (P35968 20-1356): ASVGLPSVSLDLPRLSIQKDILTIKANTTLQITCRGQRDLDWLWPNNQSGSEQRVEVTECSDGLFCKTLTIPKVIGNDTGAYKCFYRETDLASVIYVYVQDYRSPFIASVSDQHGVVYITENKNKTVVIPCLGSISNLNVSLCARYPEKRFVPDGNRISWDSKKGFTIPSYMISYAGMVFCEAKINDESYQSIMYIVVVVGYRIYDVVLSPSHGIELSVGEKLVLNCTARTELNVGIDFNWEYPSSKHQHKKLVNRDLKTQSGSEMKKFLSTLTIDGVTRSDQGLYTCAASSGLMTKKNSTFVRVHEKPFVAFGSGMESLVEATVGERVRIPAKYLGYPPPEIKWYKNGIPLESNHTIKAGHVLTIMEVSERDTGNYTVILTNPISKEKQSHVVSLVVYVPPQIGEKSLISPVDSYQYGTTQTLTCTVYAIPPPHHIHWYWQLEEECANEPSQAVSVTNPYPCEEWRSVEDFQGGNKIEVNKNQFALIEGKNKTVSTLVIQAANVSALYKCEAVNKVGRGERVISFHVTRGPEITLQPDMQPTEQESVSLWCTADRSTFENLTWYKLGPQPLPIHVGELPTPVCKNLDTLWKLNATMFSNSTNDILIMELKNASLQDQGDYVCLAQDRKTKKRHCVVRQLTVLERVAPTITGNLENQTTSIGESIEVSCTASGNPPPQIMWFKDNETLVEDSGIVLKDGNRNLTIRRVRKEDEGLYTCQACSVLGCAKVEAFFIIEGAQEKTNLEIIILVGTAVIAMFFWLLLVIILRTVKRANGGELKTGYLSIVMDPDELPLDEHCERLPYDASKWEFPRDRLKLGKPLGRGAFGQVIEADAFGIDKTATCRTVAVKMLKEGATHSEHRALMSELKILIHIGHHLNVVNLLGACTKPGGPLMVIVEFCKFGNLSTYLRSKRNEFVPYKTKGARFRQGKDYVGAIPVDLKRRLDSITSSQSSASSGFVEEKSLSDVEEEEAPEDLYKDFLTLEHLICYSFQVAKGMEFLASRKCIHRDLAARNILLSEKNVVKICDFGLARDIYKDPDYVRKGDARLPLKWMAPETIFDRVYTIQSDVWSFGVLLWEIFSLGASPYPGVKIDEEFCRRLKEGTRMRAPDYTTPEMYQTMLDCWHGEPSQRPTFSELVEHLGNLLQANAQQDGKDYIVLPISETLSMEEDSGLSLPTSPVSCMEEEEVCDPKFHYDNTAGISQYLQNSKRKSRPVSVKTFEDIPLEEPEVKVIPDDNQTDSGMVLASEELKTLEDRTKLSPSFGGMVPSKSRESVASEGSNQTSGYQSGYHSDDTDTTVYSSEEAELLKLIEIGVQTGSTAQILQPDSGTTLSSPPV
T2 sequence (P06241 whole entry): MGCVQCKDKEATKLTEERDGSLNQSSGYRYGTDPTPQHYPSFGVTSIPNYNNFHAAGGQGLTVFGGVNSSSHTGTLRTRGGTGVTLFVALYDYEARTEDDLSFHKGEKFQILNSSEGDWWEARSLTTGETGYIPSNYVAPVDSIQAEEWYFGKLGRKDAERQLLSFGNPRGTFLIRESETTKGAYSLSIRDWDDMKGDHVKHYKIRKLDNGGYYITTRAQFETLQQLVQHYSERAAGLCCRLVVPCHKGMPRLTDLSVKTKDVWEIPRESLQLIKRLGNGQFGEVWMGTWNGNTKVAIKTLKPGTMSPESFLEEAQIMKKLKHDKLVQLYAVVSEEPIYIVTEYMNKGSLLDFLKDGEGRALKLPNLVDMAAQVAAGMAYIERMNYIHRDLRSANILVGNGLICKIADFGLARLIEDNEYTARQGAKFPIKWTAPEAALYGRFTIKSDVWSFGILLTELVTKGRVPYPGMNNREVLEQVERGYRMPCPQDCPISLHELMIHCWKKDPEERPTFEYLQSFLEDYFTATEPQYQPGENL
EGFR, sequence (P00533 25-1210): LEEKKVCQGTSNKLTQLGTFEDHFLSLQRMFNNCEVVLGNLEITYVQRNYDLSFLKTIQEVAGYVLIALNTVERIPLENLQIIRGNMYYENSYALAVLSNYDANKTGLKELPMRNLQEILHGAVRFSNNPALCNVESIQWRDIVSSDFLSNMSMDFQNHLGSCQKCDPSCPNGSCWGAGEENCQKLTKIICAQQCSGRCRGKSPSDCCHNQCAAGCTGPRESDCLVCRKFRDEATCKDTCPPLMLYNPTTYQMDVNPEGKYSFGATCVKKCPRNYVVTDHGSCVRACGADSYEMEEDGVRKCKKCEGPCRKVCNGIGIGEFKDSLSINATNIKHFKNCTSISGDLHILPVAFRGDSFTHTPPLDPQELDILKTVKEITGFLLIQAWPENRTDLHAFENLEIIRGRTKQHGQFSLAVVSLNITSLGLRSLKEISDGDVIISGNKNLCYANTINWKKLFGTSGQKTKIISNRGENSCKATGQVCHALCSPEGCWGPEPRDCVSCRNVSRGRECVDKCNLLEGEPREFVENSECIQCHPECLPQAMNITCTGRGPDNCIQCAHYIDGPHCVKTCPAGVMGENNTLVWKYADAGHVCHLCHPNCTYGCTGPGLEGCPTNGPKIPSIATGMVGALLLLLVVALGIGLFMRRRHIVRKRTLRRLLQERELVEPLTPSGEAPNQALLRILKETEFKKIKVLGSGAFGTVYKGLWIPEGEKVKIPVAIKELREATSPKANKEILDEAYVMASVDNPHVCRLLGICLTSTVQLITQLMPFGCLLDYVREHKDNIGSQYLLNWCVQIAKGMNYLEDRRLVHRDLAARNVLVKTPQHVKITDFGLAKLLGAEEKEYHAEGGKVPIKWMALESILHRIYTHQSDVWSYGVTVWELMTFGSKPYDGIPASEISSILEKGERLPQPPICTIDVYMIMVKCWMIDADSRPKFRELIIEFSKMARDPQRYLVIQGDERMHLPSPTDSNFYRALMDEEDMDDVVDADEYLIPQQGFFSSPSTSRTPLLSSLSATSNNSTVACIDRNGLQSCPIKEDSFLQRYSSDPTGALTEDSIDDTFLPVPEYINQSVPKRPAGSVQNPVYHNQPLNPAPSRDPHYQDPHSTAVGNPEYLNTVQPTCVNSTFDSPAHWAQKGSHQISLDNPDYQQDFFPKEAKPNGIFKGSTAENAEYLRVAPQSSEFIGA

| SMILES | IC50 (VEGFR2 (KDR) kinase) [nM] | VEGFR2 kinase inhibition, result in words (VEGFR2 (KDR) kinase) | IC50 (FYN) [nM] | IC50 (EGFR) [nM] | IC50 (human FynB) [nM] | also measured |
| --- | --- | --- | --- | --- | --- | --- |
| Cc1ccc(Nc2ccc3c(NC(=O)c4ccc(C5CCN(C)CC5)cc4)n[nH]c3n2)c(F)c1 [Compound 30, N-(6-((2-fluoro-4-methylphenyl)amino)-1H-pyrazolo[3,4-b]pyridin-3-yl)-4-(1-methylpiperidin-4-yl)benzamide] | 1 | more potent | 115 | 155 | 669 | – |
| CN1CCC(c2ccc(C(=O)Nc3n[nH]c4nc(Nc5ccc(C#N)cc5)ccc34)cc2)CC1 [Compound 32, N-(6-((4-cyanophenyl)amino)-1H-pyrazolo[3,4-b]pyridin-3-yl)-4-(1-methylpiperidin-4-yl)benzamide] | 3 | more potent | 356 | ≥ 1000 | – | – |
| Cc1ccc(Nc2ccc3c(NC(=O)c4ccc(C5CCN(C)CC5)cc4)n[nH]c3c2)c(F)c1 [Compound 8, N-(6-((2-fluoro-4-methylphenyl)amino)-1H-indazol-3-yl)-4-(1-methylpiperidin-4-yl)benzamide] | 126 | – | 99 | ≥ 1000 | – | – |
| CN1CCC(c2ccc(C(=O)Nc3n[nH]c4cc(Nc5ccccc5F)ccc34)nc2)CC1 [Compound 39, N-(6((2-fluorophenyl)amino)-1H-indazol-3-yl)-5-(1-methylpiperidin-4-yl)picolinamide] | 533 | – | 181 | ≥ 1000 | – | – |
| COc1ccc(Nc2ccc3c(NC(=O)c4ccc(C5CCN(C)CC5)cc4)n[nH]c3n2)cc1F [Compound 33, N-(6-((3-fluoro-4-methoxyphenyl)amino)-1H-pyrazolo[3,4-b]pyridin-3-yl)-4-(1-methylpiperidin-4-yl)benzamide] | – | – | 103 | – | 1850 | – |
| COCCN1CCC(c2ccc(C(=O)Nc3n[nH]c4nc(Nc5ccccc5F)ccc34)cc2)CC1 [Compound 25, N-(6-((2-fluorophenyl)amino)-1H-pyrazolo[3,4-b]pyridin-3-yl)-4-(1-(2-methoxyethyl)piperidin-4-yl)benzamide] | – | – | 238 | – | 1770 | – |
| CN1CCC(Oc2ccc(C(=O)Nc3n[nH]c4nc(Nc5ccccc5F)ccc34)cc2)CC1 [Compound 47, N-(6-((2-fluorophenyl)amino)-1H-pyrazolo[3,4-b]pyridin-3-yl)-4((1-methylpiperidin-4-yl)oxy)benzamide] | 12 | more potent | 513 | 24 | – | EGFR kinase inhibition, result in words (EGFR): more active |
| CN1CCC(Oc2ccc(C(=O)Nc3n[nH]c4cc(Oc5ccccc5F)ccc34)cc2)CC1 [Compound 37, N-(6-(2-fluorophenoxy)-1H-indazol-3-yl)-4((1-methylpiperidin-4-yl)oxy)benzamide] | 437 | – | 388 | ≥ 1000 | – | – |
| CN1CCC(c2ccc(C(=O)Nc3n[nH]c4nc(Nc5ccccc5)ccc34)cc2)CC1 [Compound 29, 4-(1-methylpiperidin-4-yl)-N-(6-(phenylamino)-1H-pyrazolo[3,4-b]pyridin-3-yl)benzamide] | 1 | more potent | 95 | ≥ 1000 | – | – |
| CN1CCC(c2ccc(C(=O)Nc3n[nH]c4cc(Nc5c(F)cccc5Cl)ccc34)cc2)CC1 [Compound 1, N-(6-((2-chloro-6-fluorophenyl)amino)-1H-indazol-3-yl)-4-(1-methylpiperidin-4-yl)benzamide] | 105 | – | 104 | 102 | – | EGFR kinase inhibition, result in words (EGFR): more active |
| CN1CCC(c2ccc(C(=O)Nc3n[nH]c4cc(Nc5ccccc5Cl)ccc34)cc2)CC1 [Compound 14, N-(6-((2-chlorophenyl)amino)-1H-indazol-3-yl)-4-(1-methylpiperidin-4-yl)benzamide] | 58 | – | 82 | ≥ 1000 | – | – |
| CC(=O)N1CCN(c2ccc(C(=O)Nc3n[nH]c4nc(Nc5ccccc5F)ccc34)cc2)CC1 [Compound 52, 4-(4-acetylpiperazin-1-yl)-N-(6((2-fluorophenyl)amino)-1H-pyrazolo[3,4-b]pyridin-3-yl)benzamide] | – | – | 168 | – | 646 | – |
| CN1CCC(c2ccc(C(=O)Nc3n[nH]c4cc(Nc5ccccc5F)ccc34)cc2)CC1 [Compound 17, N-(6-((2-fluorophenyl)amino)-1H-indazol-3-yl)-4-(1-methylpiperidin-4-yl)benzamide] | 222 | – | 87 | 225 | – | Tlast ([1]; iv): 24 h; AUC(0-inf) ([1]; mouse, plasma, iv): 1400 ng·h/mL; AUC(0-t) ([1]; mouse, plasma, iv): 1350 ng·h/mL; clearance ([1]; mouse, plasma, iv, read-out: CLp): 47.7 mL/min/kg; Vd ([1]; mouse, plasma, iv, read-out: Vz): 22.8 L/kg; half-life ([1]; mouse, plasma, iv): 5.5 h; AUC(0-inf) ([1]; mouse, plasma, po): 726 ng·h/mL; AUC(0-t) ([1]; mouse, plasma, po): 712 ng·h/mL; Cmax ([1]; mouse, plasma, po): 178 nM; Tmax ([1]; mouse, plasma, po): 1 h; bioavailability ([1]; mouse, plasma, po): 53%; half-life ([1]; mouse, plasma, po): 4.5 h; Tlast ([1]; po): 24 h |
